Measured values reported in patent US7875599B2, “C-17-heteroaryl steroidal CYP17 inhibitors/antiandrogens, in vitro biological activities, pharmacokinetics and antitumor activity” (University of Maryland, priority 2005, dated 2011).

Tests used:
[1] = system: LAPC4 human prostate tumor xenograft; assay: LAPC4 xenograft, second experiment (treatment from day after inoculation); assay type: in vivo, mouse; conditions: 0.15 mmol/kg twice-daily s.c.
Source text: The second in vivo experiment tests the ability of 5 to inhibit the growth of LAPC4 prostate cancer cells growing in SCID mice, and 16 (Chart 1), a previously identified potent CYP17 inhibitor/antiandrogen (Gregoriyev et al. and Njar et al., J. Med. Chem., 1998, 41, 902-912, above) and castration are used as reference treatments. In this experiment, treatment begins on the day that mice were inoculated subcutaneously with hormone-dependent LAPC4 cells and are castrated or injected sc twice daily with 5 or 16.
In Vivo Antitumor Studies (LAPC-4 Prostate Cancer Xenografts): All animal studies are performed according to the guidelines and approval of the Animal Care Committee of the University of Maryland School of Medicine, Baltimore. Male severe combined immunodeficient (SCID) mice 4-6 weeks of age purchased from the National Cancer Institute-Frederick Cancer Research and Development Center (Fredrick, Md.) are housed in a pathogen-free environment under controlled conditions of light and humidity and allowed free access to food and water. Tumors are developed from LAPC4 cells inoculated subcutaneously (s.c.) in the mice essentially as previously described (21). LAPC4 cells are grown in IMEM with 15% FBS plus 1% PS and 10 nm DHT until 80% confluent. Cells are scraped into DPBS, collected by centrifugation, and resuspended in Matrigel (10 mg/ml) at 3×10^7 cells/ml. Mice are injected s.c. with 100 μl of the cell suspension at one site on each flank. Tumors are measured weekly with calipers, and tumor volumes are calculated by the formula: […]).
In the second experiment, mice are inoculated with LAPC4 cells and are divided into four groups of 5 mice each. The control and castrated group receiv vehicle, while the other two groups receiv either VN/85-1 (0.15 mmol/kg twice-daily, 9 a.m. and 5 p.m.) or 5 (0.15 mmol/kg twice-daily, 9 a.m. and 5 p.m.). These treatments are initiated one day after LAPC4 cell inoculation; continued for 14 weeks for control group, 19 weeks (for VN/85-1 and castration groups) and for 21 weeks for 5 treated group and tumors are measured and processed as described above.
FIG. 7: The effects of 5, 16, and orchidectomy on the formation and growth of LAPC4 prostate tumors in male SCID mice. 3×10^7 LAPC-4 cells were injected s.c. into the dorsal flank of SCID mice. One group of mice was castrated. The other groups of mice received either vehicle or 5 (0.15 mmol/kg twice-daily) or 16 (0.15 mmol/kg twice-daily). Daily treatment with 5 or 16 was initiated 1 day after cell inoculation. Tumors volumes were measured weekly, and the percentage of change in tumor volume was determined after 16 weeks of treatment * Indicates significant difference of 5 versus control, castration and 16 at week 14 (P 0.00065, 0.05 and 0.0097, respectively). ** Indicates significant difference of 5 versus castration and 16 at week 16 (P=0.047 and 0.0047, respectively). ↓-↓↓: Period of reduced administered dose of 5.

[2] = male, SCID, mouse, in vivo, 1 h
Method: At the end of the experiment, the levels of 5 in the tumors and organs of the 5-treated mice are determined. […] This metabolite has the same retention time as the metabolite observed in the plasma (vide supra). […] The animals in the VN/124-1-treated group are sacrificed 1 h after the last VN/124-1 administration, and tumor, liver and testis are harvested and snap frozen in liquid nitrogen. Tissue samples are homogenized in phosphate buffer (pH=7.4, […]). […] The residue is reconstituted in 100 μL of the HPLC mobile phase, filtered through 0.2 μm Teflon filters and then analyzed by HPLC as described above.

CYP17 [3] = biological target: T1, CYP17 (Homo sapiens, UniProt P05093); assay: UV-vis difference spectroscopy, binding to heme iron of CYP17
T1 sequence (P05093 1-508): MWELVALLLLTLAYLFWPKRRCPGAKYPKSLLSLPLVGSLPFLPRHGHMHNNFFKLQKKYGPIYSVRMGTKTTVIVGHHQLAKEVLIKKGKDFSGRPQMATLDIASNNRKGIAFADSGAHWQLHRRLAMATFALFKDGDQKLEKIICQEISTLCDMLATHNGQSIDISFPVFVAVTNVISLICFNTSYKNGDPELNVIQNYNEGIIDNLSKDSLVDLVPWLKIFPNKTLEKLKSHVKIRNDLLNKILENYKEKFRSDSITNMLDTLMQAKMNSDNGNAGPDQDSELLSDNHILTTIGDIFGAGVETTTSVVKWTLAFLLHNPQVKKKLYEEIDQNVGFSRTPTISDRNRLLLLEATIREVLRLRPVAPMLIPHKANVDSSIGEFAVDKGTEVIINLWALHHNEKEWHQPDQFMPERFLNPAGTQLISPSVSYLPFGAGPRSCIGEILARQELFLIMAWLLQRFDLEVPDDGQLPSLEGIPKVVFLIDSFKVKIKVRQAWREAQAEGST

LNCaP cells = assay: LNCaP cell growth, WST-1 viability assay; conditions: Homo sapiens, LNCaP, 168 h, read-out: IC50, inhibition of DHT-induced LNCaP cell proliferation, 1 nM DHT, 7 days, WST-1
Method: To determine the effect of novel compounds on cell proliferation, cells are transferred into steroid-free medium three days prior to the start of the experiments. Steroid-free medium consisted of phenol red free RPMI supplemented with 5% dextran-coated, charcoal treated serum, and 1% penicillin/streptomycin solution. Growth studies are then performed by plating cells (3×10^4) in 24-well multi-well dishes (Corning, Inc. Corning, N.Y.). After a 24 hours attachment period, the medium is aspirated and replaced with steroid-free medium containing vehicle or the indicated concentration of DHT (1 nM) and compounds (0.1 μM-10 μM). Control wells are treated with vehicle (ethanol). This medium is changed every three days and the number of viable cells is compared by WST-1 [4-[3-(4-iodophenyl)-2-(4-nitrophenyl)-2H-5-tetrazolio]-1,3-benzene disulfonate] assay on the seventh day. Following incubation of cells for the above-mentioned time, 10% WST-1 solution is added to each well and incubated at 37° C. for three hours. Following incubation, plates are slightly shaken and immediately read at 450 nm with a scanning multi-well spectrophotometer. All results represent the average of a minimum of three wells. Additional control consists of medium alone with no cells.
Cells were grown in steroid-free medium before plating.

[4] = biological target: T2, human 5α-reductase type 1 (Homo sapiens, UniProt P18405); assay: Human 5α-reductase type 1 assay (DU-145 cell line)
T2 sequence (P18405 1-259): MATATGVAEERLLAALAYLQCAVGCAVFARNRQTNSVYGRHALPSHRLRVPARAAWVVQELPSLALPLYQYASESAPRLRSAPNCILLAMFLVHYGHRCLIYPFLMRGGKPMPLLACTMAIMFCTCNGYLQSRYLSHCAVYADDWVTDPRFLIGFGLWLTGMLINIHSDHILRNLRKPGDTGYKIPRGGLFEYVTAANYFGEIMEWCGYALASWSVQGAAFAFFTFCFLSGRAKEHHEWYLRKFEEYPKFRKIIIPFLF

[5] = biological target: T3, human 5α-reductase type 2 (Homo sapiens, UniProt P31213); assay: Human 5α-reductase type 2 assay (BPH tissue homogenate)
T3 sequence (P31213 1-254): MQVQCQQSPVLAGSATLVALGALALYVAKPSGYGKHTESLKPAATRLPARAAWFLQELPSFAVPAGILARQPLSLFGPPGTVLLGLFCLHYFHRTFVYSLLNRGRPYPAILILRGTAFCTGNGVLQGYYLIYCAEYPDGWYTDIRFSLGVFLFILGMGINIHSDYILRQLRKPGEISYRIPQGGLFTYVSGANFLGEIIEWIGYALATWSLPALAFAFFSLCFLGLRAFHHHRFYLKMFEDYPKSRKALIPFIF

CYP17 [6] = biological target: T1, CYP17; assay: CYP17 inhibition, acetic acid releasing assay with intact P450c17-expressing E. coli

Row | Compound | increase of tumor volume ([1]; week 14) | reduction of tumor volume versus control mice ([1]; week 14 (b4 prints 50 mg/kg/twice daily)) | concentration in the s.c. tumors [2] | type of difference spectrum induced (CYP17 [3]) | IC50 (LNCaP cells) | inhibition at 10 µM ([4]; read-out: 5α-Reductase type 1 % inhibition at 10 μM) | inhibition at 10 µM ([5]; read-out: 5α-Reductase type 2 % inhibition at 10 μM) | IC50 (CYP17 [6]) | IC50 [4] | IC50 [5]
1 | C[C@]12CC[C@H](O)CC1=CC[C@@H]1[C@@H]2CC[C@]2(C)C(n3cnc4ccccc43)=CC[C@@H]12 [Compound 5, 3β-Hydroxy-17-(1H-benzimidazol-1-yl)androsta-5,16-diene] | 0.5 fold | 93.8% | 39.0±8.4 μg/mg tissue | type II difference spectrum | 6000 nM | 4% | 53% | 300 nM | – | –
2 | C[C@]12CCC(=O)C=C1CC[C@@H]1[C@@H]2CC[C@]2(C)C(n3cnc4ccccc43)=CC[C@@H]12 [Compound 6, 17-(1H-benzimidazol-1-yl)androsta-4,16-diene-3-one] | – | – | – | – | – | – | – | 915 nM | 770 nM | 480 nM
